# Measurements reported in patent US10849901B2, “Arf6 inhibitors and methods of synthesis and use thereof” (Navigen, Inc., priority 2014, dated 2020).
# Target: Arf6 (Homo sapiens (Human), UniProt P62330)
# Test: Fluorometric assay for Arf6 nucleotide exchange catalyzed by ARNO Sec7 domain (GTP-BODIPY FL)
# Assay type: biochemical
# Details: 20 nM Arf6 assay; read-out: IC50 (μM) 20 nM Arf6
# Description: FIGS. 1A-1D: Fluorometric high throughput assay for Arf6 nucleotide exchange catalyzed by ARNO Sec7 domain. FIG. 1A: Principle of the assay. FIG. 1B: SDS-PAGE analysis of N-terminally His-tagged Arf6(14-175) and ARNO(50-255) purified from the E. coli cultures by immobilized metal affinity chromatography. FIG. 1C: Correlation between signal intensity and ARNO concentration. The assay was performed using 50 mM Tris-HCl, pH 7.5, 1 mM MgCl2, 0.01% TX-100, 1% DMSO, 50 nM GTP-BODIPY FL, supplemented with ARNO-Sec7 at indicated concentrations in the absence or in the presence of 0.2 μM Arf6-GDP. Fluorescence intensities were monitored using a Synergy 4 plate reader (BioTek) at the excitation and emission wavelengths of 490 nm and 520 nm, respectively. FIG. 1D: Time course of apparent inhibitory potency of GDP. The assay was performed in automated mode using a Matrix PlateMate liquid handler.
# The primary biochemical assay uses a fluorometric assay for monitoring the replacement of bound nucleotide with a fluorogenic GTP derivative bearing a BODIPY FL moiety, allowing for the identification of compounds that can inhibit this exchange (see FIG. 1A). In certain embodiments, the methods disclosed herein may exploit the reduction of intramolecular fluorescence quenching of the modified nucleotide upon its binding to the target protein (see, e.g., McEwen D P, Gee K R, Kang H C, Neubig R R. Fluorescent BODIPY-GTP analogs: real-time measurement of nucleotide binding to G proteins. Anal Biochem. 2001 Apr. 1; 291(1): 109-17).
# The fluorometric assay formatted for 96-well microtiter plates has passed quality control based on the following criteria: i) S/B ratio of 4-fold and Z′-factor of 0.61; ii) linear correlation between signal intensity and ARNO concentration (see FIG. 1C); iii) sufficiently reproducible inhibitory effects of the reference inhibitor GDP for assay durations up to at least 1 hour (see FIG. 1D); and iv) lack of apparent fluorescence quenchers among 400 randomly selected compounds. The assay is amenable to automation with a throughput of approximately 5,000 data points per 8 hours.
# Sequence of Arf6 (P62330 14-175): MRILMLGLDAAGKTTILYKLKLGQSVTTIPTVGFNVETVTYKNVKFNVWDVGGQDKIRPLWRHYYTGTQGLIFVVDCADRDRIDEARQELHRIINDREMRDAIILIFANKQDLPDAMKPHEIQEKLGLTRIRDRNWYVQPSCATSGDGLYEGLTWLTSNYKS
row,Compound,IC50
1,CC(C)(C)c1nn2c(=O)cc(-c3ccccc3C#N)[nH]c2c1-c1ccc(Cl)cc1 [Compound 32],1.5 µM
2,O=c1cc(-c2ccc([N+](=O)[O-])cc2)[nH]c2c(-c3ccc(Cl)cc3)c(C(F)(F)F)nn12 [Compound 33],1.6 µM
3,O=c1cc(-c2cccc(Br)c2)[nH]c2c(-c3ccc(Cl)cc3)c(C(F)(F)F)nn12 [Compound 34],1.6 µM
4,CC(C)CC(=O)Nc1ccc(-c2cc(=O)n3nc(C(F)(F)F)c(-c4ccc(Cl)cc4)c3[nH]2)cc1 [Compound 35],1.7 µM
5,Cc1nn2c(=O)cc(-c3ccc([N+](=O)[O-])cc3)[nH]c2c1-c1ccc(Cl)cc1Cl [Compound 36],1.7 µM
6,Cc1nn2c(=O)cc(-c3ccc([N+](=O)[O-])cc3)[nH]c2c1-c1ccc(Cl)cc1 [Compound 39],1.9 µM
7,N#Cc1ccc(-c2cc(=O)n3nc(C(F)(F)F)c(-c4ccc(Cl)cc4)c3[nH]2)cc1 [Compound 40],1.9 µM
8,Cc1nn2c(=O)cc(-c3ccc(NC(=O)Cc4ccccc4)cc3)[nH]c2c1-c1ccc(Cl)cc1 [Compound 41],1.9 µM
9,Cc1nn2c(=O)cc(-c3ccc(NC(=O)NCc4ccccc4)cc3)[nH]c2c1-c1ccc(Cl)cc1 [Compound 42],2.1 µM
10,Cc1nn2c(=O)cc(-c3ccc([N+](=O)[O-])cc3)[nH]c2c1-c1cc(Cl)cc(Cl)c1 [Compound 43],2.1 µM
11,CC(C)(C)c1nn2c(=O)cc(-c3cccc(C#N)c3)[nH]c2c1-c1ccc(Cl)cc1 [Compound 44],2.2 µM
12,CC(c1ccccc1)c1cc(=O)n2nc(C(F)(F)F)c(-c3ccc(Cl)cc3)c2[nH]1 (centres unmarked) [Compound 45],2.3 µM
13,O=c1cc(-c2ccc([N+](=O)[O-])cc2)[nH]c2c(-c3ccc(Cl)cc3)c(Cc3ccncc3)nn12 [Compound 46],2.4 µM
14,O=c1cc(-c2ccc(-c3ccncc3)cc2)[nH]c2c(-c3ccc(Cl)cc3)c(C(F)(F)F)nn12 [Compound 47],2.4 µM
15,Cc1nn2c(=O)cc(-c3ccc(NC(=O)c4ccccc4)cc3)[nH]c2c1-c1ccc(Cl)cc1 [Compound 48],2.4 µM
16,O=c1c(Cl)c(-c2ccccc2)[nH]c2c(-c3ccc(Cl)cc3)c(Cc3ccccc3)nn12 [Compound 49],2.5 µM
17,CC(C)CC(=O)Nc1cccc(-c2cc(=O)n3nc(C(F)(F)F)c(-c4ccc(Cl)cc4)c3[nH]2)c1 [Compound 50],2.5 µM
18,Cc1nn2c(=O)cc(-c3ccc([N+](=O)[O-])cc3)[nH]c2c1-c1cccc2ccccc12 [Compound 51],2.7 µM
19,O=c1cc(-c2ccc([N+](=O)[O-])cc2)[nH]c2c(-c3ccc(Cl)cc3)c(Cc3cccnc3)nn12 [Compound 52],2.8 µM
20,Cc1nn2c(=O)cc(-c3cccc(-c4cccnc4)c3)[nH]c2c1-c1ccc(Cl)cc1 [Compound 53],3 µM
21,CSc1ccc(Cc2nn3c(=O)cc(-c4ccc([N+](=O)[O-])cc4)[nH]c3c2-c2ccc(Cl)cc2)cc1 [Compound 54],3 µM
22,CN(C)C(=O)c1ccc(-c2cc(=O)n3nc(Cc4ccccc4)c(-c4ccc(Cl)cc4)c3[nH]2)cc1 [Compound 56],3.2 µM
23,Cc1nn2c(=O)cc(-c3ccc([N+](=O)[O-])cc3)[nH]c2c1-c1cccc(Cl)c1Cl [Compound 57],3.2 µM
24,N#Cc1ccc(-c2cc(=O)n3nc(C4CC4)c(-c4ccc(Cl)cc4)c3[nH]2)cc1 [Compound 58],3.2 µM

# Now from value to compound:
row,IC50,Compound
1,0.25 µM,O=c1cc(-c2cccc(-c3cccnc3)c2)[nH]c2c(-c3ccc(Cl)c(Cl)c3)c(C(F)(F)F)nn12 [Compound 1]
2,0.33 µM,O=c1cc(-c2cccc(Oc3cc(F)cc(F)c3)c2)[nH]c2c(-c3ccc(Cl)c(Cl)c3)c(C(F)(F)F)nn12 [Compound 2]
3,0.5 µM,O=C(Nc1ccc(C2=Nc3c(-c4ccc(Cl)cc4)c(C(F)(F)F)nn3C(=O)C2)cc1)c1ccccc1 [Compound 3]
4,0.58 µM,O=c1cc(-c2ccc([N+](=O)[O-])cc2)[nH]c2c(-c3ccc(Cl)c(Cl)c3)c(-c3ccccc3)nn12 [Compound 5]
5,0.66 µM,O=c1cc(-c2ccc(Oc3ccccc3)cc2)[nH]c2c(-c3ccc(Cl)c(Cl)c3)c(C(F)(F)F)nn12 [Compound 6]
6,0.66 µM,O=c1cc(-c2ccc([N+](=O)[O-])cc2)[nH]c2c(-c3ccc(Cl)c(Cl)c3)c(C(F)(F)F)nn12 [Compound 7]
7,0.67 µM,O=c1cc(-c2ccc([N+](=O)[O-])cc2)[nH]c2c(-c3ccc(Cl)c(C(F)(F)F)c3)c(C(F)(F)F)nn12 [Compound 8]
8,0.84 µM,O=c1cc(Cc2ccccc2)[nH]c2c(-c3ccc(Cl)c(Cl)c3)c(C(F)(F)F)nn12 [Compound 9]
9,0.88 µM,O=c1c(Cl)c(-c2ccc([N+](=O)[O-])cc2)[nH]c2c(-c3ccc(Cl)cc3)c(C(F)(F)F)nn12 [Compound 10]
10,0.96 µM,O=c1cc(-c2ccc([N+](=O)[O-])cc2)[nH]c2c(-c3ccc(Cl)cc3)c(-c3ccccc3)nn12 [Compound 11]
11,0.96 µM,Cc1ccc(-c2cccc(-c3cc(=O)n4nc(C(F)(F)F)c(-c5ccc(Cl)cc5)c4[nH]3)c2)cn1 [Compound 12]
12,0.98 µM,O=c1c(Cl)c(-c2ccccc2)[nH]c2c(-c3ccc(Cl)cc3)c(C(F)(F)F)nn12 [Compound 13]
13,1 µM,O=c1cc(-c2cccc(Oc3ccccc3)c2)[nH]c2c(-c3ccc(Cl)c(Cl)c3)c(C3CC3)nn12 [Compound 14]
14,1.1 µM,O=c1cc(-c2ccc(Br)cc2)[nH]c2c(-c3ccc(Cl)cc3)c(C(F)(F)F)nn12 [Compound 15]
15,1 µM,CCC(=O)Nc1ccc(-c2cc(=O)n3nc(C(F)(F)F)c(-c4ccc(Cl)cc4)c3[nH]2)cc1 [Compound 16]
16,1.1 µM,O=c1cc(-c2ccc(-c3cccnc3)cc2)[nH]c2c(-c3ccc(Cl)cc3)c(C(F)(F)F)nn12 [Compound 17]
17,1.1 µM,Cc1nn2c(=O)cc(-c3ccc([N+](=O)[O-])cc3)[nH]c2c1-c1ccc(-c2ccccc2)cc1 [Compound 18]
18,1.1 µM,CN(C)c1ccc(-c2cccc(-c3cc(=O)n4nc(C(F)(F)F)c(-c5ccc(Cl)cc5)c4[nH]3)c2)cn1 [Compound 19]
19,1.1 µM,O=c1cc(-c2ccc([N+](=O)[O-])cc2)[nH]c2c(-c3cccc4ccccc34)c(Cc3ccccc3)nn12 [Compound 20]
20,1.2 µM,O=c1cc(-c2cccc([N+](=O)[O-])c2)[nH]c2c(-c3ccc(Cl)cc3)c(C(F)(F)F)nn12 [Compound 21]
21,1.2 µM,O=c1cc(-c2ccc([N+](=O)[O-])cc2)[nH]c2c(-c3ccc(Cl)c(Cl)c3)c(C3CC3)nn12 [Compound 22]
22,1.2 µM,O=c1cc(-c2ccc([N+](=O)[O-])cc2)[nH]c2c(-c3ccc(Cl)c(Cl)c3)c(Cc3ccccc3)nn12 [Compound 23]
23,1.3 µM,"O=c1c(Cl)c(-c2ccc([N+](=O)[O-])cc2)[nH]c2c(-c3ccc(Cl)cc3)c(Cc3ccccc3)nn12 [Compound 24, 2-benzyl-6-chloro-3-(4-chlorophenyl)-5-(4-nitrophenyl)-4H-pyrazolo[1,5-a]pyrimidin-7-one]"
24,1.4 µM,O=c1cc(-c2ccc(Cl)cc2)[nH]c2c(-c3ccc(Cl)cc3)c(C(F)(F)F)nn12 [Compound 25]
25,1.4 µM,COc1cc(-c2c(C)nn3c(=O)cc(-c4ccc([N+](=O)[O-])cc4)[nH]c23)ccc1Cl [Compound 26]
26,1.4 µM,O=c1cc(-c2ccc([N+](=O)[O-])cc2)[nH]c2c(-c3ccc(Cl)c(Cl)c3)c(C3CC3)nn12 [Compound 27]
27,1.4 µM,CC(c1ccccc1)c1nn2c(=O)cc(-c3ccc([N+](=O)[O-])cc3)[nH]c2c1-c1ccc(Cl)cc1 (centres unmarked) [Compound 28]
28,1.5 µM,O=c1cc(-c2ccccc2)[nH]c2c(-c3ccc(Cl)cc3)c(Cc3ccccc3)nn12 [Compound 29]
29,1.5 µM,Cc1nn2c(=O)cc(-c3ccc([N+](=O)[O-])cc3)[nH]c2c1-c1ccc(Oc2ccccc2)cc1 [Compound 30]
30,1.5 µM,COc1ccc(-c2cccc(-c3cc(=O)n4nc(C(F)(F)F)c(-c5ccc(Cl)cc5)c4[nH]3)c2)cn1 [Compound 31]

# Same assay, conditions: 200 nM Arf6 assay; read-out: IC50 (μM) 200 nM Arf6
row,Compound,IC50
1,O=c1cc(-c2ccc([N+](=O)[O-])cc2)[nH]c2c(-c3ccc(Cl)cc3)c(C(F)(F)F)nn12 [Compound 33],2.6 µM
2,O=c1cc(-c2ccc([N+](=O)[O-])cc2O)[nH]c2c(-c3ccc(Cl)cc3)c(Cc3ccccc3)nn12 [Compound 37],1.7 µM
3,Cc1nn2c(=O)cc(-c3ccc([N+](=O)[O-])cc3)[nH]c2c1-c1ccc(Cl)cc1 [Compound 39],4.7 µM
4,O=c1cc(-c2ccc([N+](=O)[O-])cc2)[nH]c2c(-c3ccc(Cl)cc3)c(Cc3ccncc3)nn12 [Compound 46],3.2 µM
5,Cc1nn2c(=O)cc(-c3ccc([N+](=O)[O-])cc3)[nH]c2c1-c1cccc2ccccc12 [Compound 51],4.9 µM
6,O=c1cc(-c2ccc([N+](=O)[O-])cc2)[nH]c2c(-c3ccc(Cl)cc3)c(Cc3cccnc3)nn12 [Compound 52],4.8 µM
7,COc1ccc(-c2c(Cc3ccccc3)nn3c(=O)cc(-c4ccc([N+](=O)[O-])cc4)[nH]c23)cc1 [Compound 55],3.1 µM
8,CN(C)C(=O)c1ccc(-c2cc(=O)n3nc(Cc4ccccc4)c(-c4ccc(Cl)cc4)c3[nH]2)cc1 [Compound 56],2.6 µM
9,O=c1cc(-c2ccc([N+](=O)[O-])cc2)[nH]c2c(-c3ccccc3)c(Cc3ccccc3)nn12 [Compound 59],3.2 µM
10,O=c1cc(-c2ccc([N+](=O)[O-])cc2)[nH]c2c(-c3ccc(Cl)cc3)cnn12 [Compound 60],3.2 µM

# Now from value to compound:
row,IC50,Compound
1,1.1 µM,O=c1cc(-c2ccc(Oc3ccccc3)cc2)[nH]c2c(-c3ccc(Cl)c(Cl)c3)c(C(F)(F)F)nn12 [Compound 6]
2,1.6 µM,O=c1cc(Cc2ccccc2)[nH]c2c(-c3ccc(Cl)c(Cl)c3)c(C(F)(F)F)nn12 [Compound 9]
3,1.4 µM,"O=c1c(Cl)c(-c2ccc([N+](=O)[O-])cc2)[nH]c2c(-c3ccc(Cl)cc3)c(Cc3ccccc3)nn12 [Compound 24, 2-benzyl-6-chloro-3-(4-chlorophenyl)-5-(4-nitrophenyl)-4H-pyrazolo[1,5-a]pyrimidin-7-one]"
4,3.3 µM,O=c1cc(-c2ccccc2)[nH]c2c(-c3ccc(Cl)cc3)c(Cc3ccccc3)nn12 [Compound 29]
